The source of these data is ChEMBL document CHEMBL4477217, “Discovery of 3-(3-(4-(1-Aminocyclobutyl)phenyl)-5-phenyl-3H-imidazo[4,5-b]pyridin-2-yl)pyridin-2-amine (ARQ 092): An Orally Bioavailable, Selective, and Potent Allosteric AKT Inhibitor” (J Med Chem, 2016).

The target of series [1] is RAC-gamma serine/threonine-protein kinase (Homo sapiens, UniProt Q9Y243). Also on record: species or system Sf9.
In series [2] the target is RAC-beta serine/threonine-protein kinase (Homo sapiens, UniProt P31751). Also on record: species or system Sf9.
Sequence of RAC-beta serine/threonine-protein kinase (P31751 whole entry): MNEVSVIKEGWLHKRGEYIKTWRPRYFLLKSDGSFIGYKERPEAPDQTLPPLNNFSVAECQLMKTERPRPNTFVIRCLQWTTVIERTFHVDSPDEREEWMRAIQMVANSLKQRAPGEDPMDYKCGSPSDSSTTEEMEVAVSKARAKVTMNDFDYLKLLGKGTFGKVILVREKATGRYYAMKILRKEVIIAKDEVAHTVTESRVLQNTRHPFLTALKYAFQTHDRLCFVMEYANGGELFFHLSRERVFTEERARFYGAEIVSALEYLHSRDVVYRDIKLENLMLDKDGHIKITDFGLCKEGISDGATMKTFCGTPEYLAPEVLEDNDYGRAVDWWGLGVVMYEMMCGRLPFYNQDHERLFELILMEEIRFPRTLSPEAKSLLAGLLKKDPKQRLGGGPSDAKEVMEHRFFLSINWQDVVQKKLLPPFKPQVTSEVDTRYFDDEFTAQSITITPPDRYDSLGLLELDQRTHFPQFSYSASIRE
Series [3] in a line: in vitro. The note with it: human, liver microsomes.
Series [4] can be described thus: Solubility of the compound. It counts as physicochemical.
The nature of series [5]: in vitro. The note with it: male, CD-1, mouse, liver microsomes.
Series [6] is described as follows: in vitro. The note with it: female, CD-1, mouse, liver microsomes.
Series [7] is described as follows: in vitro. As to conditions: male, Beagle, dog, liver microsomes.
Series [8] is described as follows: in vitro. As to conditions: female, Beagle, dog, liver microsomes.
A short description of series [9]: Drug uptake in NCr-M nude mouse plasma xenografted with human AN3CA cells at 200 mg/kg, po after 1 hr. In kind it is ADME, organism-based.
The test system of series [10] is Mus musculus. In words: In vivo inhibition of AKT1 phosphorylation in human AN3CA cells xenografted in NCr-M nude mouse assessed as inhibition of PRAS40 phosphorylation at Thr246 at 100 mg/kg, po after 8 hrs by Western blot analysis. It counts as functional. The note with it: AN3-CA.
Series [11] can be described thus: Drug uptake in NCr-M nude mouse plasma xenografted with human AN3CA cells at 100 mg/kg, po after 1 hr. It counts as ADME, organism-based.
Series [12] is described as follows: Tmax in rat at 5 mg/kg administered as single dose. In kind it is ADME, organism-based. As to conditions: in vivo.
Series [13] is described as follows: Half life in rat at 5 mg/kg administered as single dose. It counts as ADME, organism-based. As to conditions: in vivo.
The subject of series [14] is Mus musculus. In words: In vivo inhibition of AKT1 phosphorylation at Thr308 in human AN3CA cells xenografted in NCr-M nude mouse at 100 mg/kg, po after 8 hrs by Western blot analysis. It counts as functional. The note with it: AN3-CA.
Series [15] concerns Mus musculus. In words: In vivo inhibition of AKT1 phosphorylation in human AN3CA cells xenografted in NCr-M nude mouse assessed as inhibition of PRAS40 phosphorylation at Thr246 at 200 mg/kg, po after 1 hr by Western blot analysis. It counts as functional. As to conditions: AN3-CA.
Series [16] relates to Mus musculus. In words: In vivo inhibition of AKT1 phosphorylation at Ser473 in human AN3CA cells xenografted in NCr-M nude mouse at 200 mg/kg, po after 1 hr by Western blot analysis. It counts as functional. As to conditions: AN3-CA.
Series [17] deals with Mus musculus. In words: In vivo inhibition of AKT1 phosphorylation at Thr308 in human AN3CA cells xenografted in NCr-M nude mouse at 200 mg/kg, po after 8 hrs by Western blot analysis. The note with it: AN3-CA. In kind it is functional.
A short description of series [18]: Tmax in monkey at 10 mg/kg administered as single dose. It counts as ADME, organism-based, Macaca mulatta. As to conditions: rhesus monkey, in vivo.
A short description of series [19]: Oral bioavailability in monkey at 10 mg/kg administered as single dose. As to conditions: rhesus monkey, in vivo. It counts as ADME, organism-based, Macaca mulatta.
Series [20] in a line: Oral bioavailability in mouse at 100 mg/kg. It counts as ADME, organism-based. The note with it: in vivo.
Series [21] can be described thus: Oral bioavailability in rat at 5 mg/kg administered as single dose. The note with it: in vivo. It counts as ADME, organism-based.
A short description of series [22]: Drug uptake in NCr-M nude mouse tumor xenografted with human AN3CA cells at 100 mg/kg, po after 1 hr. In kind it is ADME, organism-based, Neoplasm. The note with it: read-out: Drug uptake.
A short description of series [23]: Drug uptake in NCr-M nude mouse tumor xenografted with human AN3CA cells at 200 mg/kg, po after 8 hr. It counts as ADME, organism-based, Neoplasm. The note with it: read-out: Drug uptake.
Series [24] relates to Mus musculus. In words: In vivo inhibition of AKT1 phosphorylation at Ser473 in human AN3CA cells xenografted in NCr-M nude mouse at 100 mg/kg, po after 1 hr by Western blot analysis. It counts as functional. The note with it: AN3-CA.
Series [25] is described as follows: Drug uptake in NCr-M nude mouse plasma xenografted with human AN3CA cells at 200 mg/kg, po after 8 hr. It counts as ADME, organism-based.
Series [26] has as its system Mus musculus. In words: In vivo inhibition of AKT1 phosphorylation at Ser473 in human AN3CA cells xenografted in NCr-M nude mouse at 200 mg/kg, po after 8 hrs by Western blot analysis. As to conditions: AN3-CA. It counts as functional.
Series [27] is described as follows: Drug uptake in NCr-M nude mouse plasma xenografted with human AN3CA cells at 100 mg/kg, po after 8 hr. It counts as ADME, organism-based.
For series [28], the system named is Mus musculus. In words: In vivo inhibition of AKT1 phosphorylation at Thr308 in human AN3CA cells xenografted in NCr-M nude mouse at 100 mg/kg, po after 1 hr by Western blot analysis. As to conditions: AN3-CA. In kind it is functional.
Series [29] in a line: AUC (infinity) in monkey at 10 mg/kg administered as single dose. It counts as ADME, organism-based, Macaca mulatta. Further details: dose 10 mg/kg, time infinity. The note with it: rhesus monkey, in vivo.
Series [30] concerns Mus musculus. In words: In vivo inhibition of AKT1 phosphorylation in human AN3CA cells xenografted in NCr-M nude mouse assessed as inhibition of PRAS40 phosphorylation at Thr246 at 100 mg/kg, po after 1 hr by Western blot analysis. It counts as functional. The note with it: AN3-CA.
The nature of series [31]: Half life in monkey at 10 mg/kg administered as single dose. It counts as ADME, organism-based, Macaca mulatta. The note with it: rhesus monkey, in vivo.
A short description of series [32]: Cmax in monkey at 10 mg/kg administered as single dose po. Further details: dose 10 mg/kg, route oral. It counts as ADME, organism-based, Macaca mulatta. The note with it: rhesus monkey, in vivo.
Series [33] has as its system Mus musculus. In words: In vivo inhibition of AKT1 phosphorylation at Thr308 in human AN3CA cells xenografted in NCr-M nude mouse at 200 mg/kg, po after 1 hr by Western blot analysis. In kind it is functional. The note with it: AN3-CA.
Series [34] relates to Mus musculus. In words: In vivo inhibition of AKT1 phosphorylation in human AN3CA cells xenografted in NCr-M nude mouse assessed as inhibition of PRAS40 phosphorylation at Thr246 at 200 mg/kg, po after 8 hrs by Western blot analysis. In kind it is functional. The note with it: AN3-CA.
Series [35] is described as follows: Cmax in rat at 5 mg/kg administered as single dose. It counts as ADME, organism-based. As to conditions: in vivo. Further details: dose 5 mg/kg.
For series [36], the system named is Mus musculus. In words: In vivo inhibition of AKT1 phosphorylation at Ser473 in human AN3CA cells xenografted in NCr-M nude mouse at 100 mg/kg, po after 8 hrs by Western blot analysis. It counts as functional. The note with it: AN3-CA.
The nature of series [37]: Drug uptake in NCr-M nude mouse tumor xenografted with human AN3CA cells at 200 mg/kg, po after 1 hr. As to conditions: read-out: Drug uptake. It counts as ADME, organism-based, Neoplasm.
A short description of series [38]: AUC (infinity) in rat at 5 mg/kg administered as single dose. The note with it: in vivo. Also on record: dose 5 mg/kg, time infinity. It counts as ADME, organism-based.
Series [39] is described as follows: Drug uptake in NCr-M nude mouse tumor xenografted with human AN3CA cells at 100 mg/kg, po after 8 hr. It counts as ADME, organism-based, Neoplasm. As to conditions: read-out: Drug uptake.

Sequence of RAC-gamma serine/threonine-protein kinase (Q9Y243 whole entry): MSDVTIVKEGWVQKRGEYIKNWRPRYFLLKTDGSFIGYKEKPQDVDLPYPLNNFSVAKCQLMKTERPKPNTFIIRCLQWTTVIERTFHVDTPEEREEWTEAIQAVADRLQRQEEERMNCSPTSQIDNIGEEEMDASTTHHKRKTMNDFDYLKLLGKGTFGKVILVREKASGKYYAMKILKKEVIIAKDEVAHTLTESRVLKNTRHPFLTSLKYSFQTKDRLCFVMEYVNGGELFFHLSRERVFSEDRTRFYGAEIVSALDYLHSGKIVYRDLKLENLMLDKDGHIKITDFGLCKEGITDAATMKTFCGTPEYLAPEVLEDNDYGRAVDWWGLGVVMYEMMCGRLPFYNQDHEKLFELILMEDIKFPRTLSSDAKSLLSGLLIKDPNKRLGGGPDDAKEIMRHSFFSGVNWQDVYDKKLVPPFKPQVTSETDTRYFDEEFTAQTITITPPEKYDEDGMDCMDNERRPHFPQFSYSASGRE

Regarding `CC(C)(C)c1ccc(-n2c(-c3cccnc3N)nc3cccnc32)cc1`, the IC50 is 71 µM in series [1] and 16 µM in series [2].
`Cl.NCc1ccc(-n2c(-c3cccnc3N)nc3ccc(-c4ccccc4)nc32)cc1` had a half-life at 1 µM in the series “in vitro [3]” of 39 min. The same molecule gave a solubility in series [4] of 188 µM.
With `NCc1ccc(-n2c(-c3cccnc3N)nc3cccnc32)cc1`, the 50% inhibitory concentration (IC50) is above 100 µM in series [1] and 9.3 µM in series [2].
Regarding `CC(=O)Nc1cccc(-c2ccc3nc(-c4cccnc4N)n(-c4ccc(C5(N)CCC5)cc4)c3n2)c1.Cl`, the half-life at 1 µM was above 60 min in the series “in vitro [5]”; above 60 min in the series “in vitro [6]”; above 60 min in the series “in vitro [3]”; above 60 min in “in vitro [7]”; 50 min in “in vitro [8]”. For the same molecule, in series [4], the solubility was 160 µM.
Regarding `Cl.Nc1ncccc1-c1nc2ccc(-c3ccccc3)nc2n1-c1ccc(C2(N)CCC2)cc1`, the half-life at 1 µM in “in vitro [5]” was determined as 17 min; in “in vitro [6]” it was 18 min; in “in vitro [3]”, 55 min; in the series “in vitro [7]”, 31 min; in the series “in vitro [8]” it was 28 min. In addition, the concentration at 1 h in [9] is 2.7 µM; in [11], 2.1 µM; in [22], 21 µM; in series [37], 35.8 µM. Further, the inhibition in vivo at 100 mg/kg in the series on Mus musculus [10] was 35.9%; with Mus musculus [14], 96.3%; with Mus musculus [24], 99.2%; with Mus musculus [28] it was 95%; in the series on Mus musculus [30] it was 57.7%; with Mus musculus [36], 98.6%. Besides, the Tmax in [12] stood at 480 min; in series [18] it was 258 min. The values for the half-life in series [13] and in series [31] were 1020 min and 420 min, respectively. Also, the inhibition in vivo at 200 mg/kg in the series on Mus musculus [15] stood at 50.5%; in the series on Mus musculus [16], 99.2%; in the series on Mus musculus [17], 90.8%; with Mus musculus [26] it was 99.7%; with Mus musculus [33], 93.3%; in the series on Mus musculus [34], 42.5%. For the same molecule, the bioavailability in [19] turned out to be 49%; in series [20], 23%; in [21], 62%. In addition, the concentration at 8 h in series [23] turned out to be 27.4 µM; in series [25], 1 µM; in [27] it was 0.26 µM; in series [39] it was 9.6 µM. Also, the AUC(0-inf) in [29] is 2960 ng·h/mL; in series [38] it was 5500 ng·h/mL. Further, the Cmax in [32] came to 258 ng/mL; in series [35] it was 198 ng/mL. The amount in solution in [4] (solubility) came to 170 µM.
For the molecule `Cc1ccc(-n2c(-c3cccnc3N)nc3cccnc32)cc1`, the IC50 was above 100 µM in [1] and 20 µM in series [2].
For the molecule `Cl.Nc1ncccc1-c1nc2ccc(-c3cccnc3)nc2n1-c1ccc(C2(N)CCC2)cc1`, the half-life at 1 µM in “in vitro [5]” is 31 min; in the series “in vitro [6]” it was 37 min; in “in vitro [3]”, above 30 min; in “in vitro [7]”, above 30 min; in the series “in vitro [8]”, 21 min. Also, the concentration in solution in series [4] (solubility) came to 178 µM.
`CC(=O)Nc1cccc(-c2ccc3nc(-c4cccnc4N)n(-c4ccc(CN)cc4)c3n2)c1.Cl`: the half-life at 1 µM was above 60 min in the series “in vitro [5]”, 45 min in the series “in vitro [6]”, above 60 min in the series “in vitro [7]” and above 60 min in “in vitro [8]”. Also, in series [4], the solubility is at least 200 µM.
Take `NCc1ccc(-n2c(-c3cccnc3N)nc3cc(-c4cccnc4)cnc32)cc1`: the values for the IC50 in series [1] and in series [2] were above 10 µM and 3.5 µM, respectively.
`Cc1cnc2c(c1)nc(-c1cccnc1N)n2-c1ccc(CN)cc1` came in with an IC50 in [1] above 10 µM.
For the molecule `Cl.Nc1cccc(-c2ccc3nc(-c4cccnc4N)n(-c4ccc(C5(N)CCC5)cc4)c3n2)c1`, the half-life at 1 µM in “in vitro [5]”, in “in vitro [6]”, in the series “in vitro [3]”, in “in vitro [7]” and in the series “in vitro [8]” was above 60 min each time. In series [4], this molecule showed a solubility of 138 µM.
